{"source": "patent US20220151985A1", "about": "“IMMUNOSTIMULATOR AND FOOD OR BEVERAGE FOR IMMUNOSTIMULATION” (AMINO UP CO., LTD., priority 2019, published 2022)", "key": {"TNF-α production of PEC": {"system": "TNF-α production of PEC", "experiment": "Amount of induced TNF-α production of PEC from treated mice when treated with LPS", "format": "in vivo, Slc: ddY mice", "details": "PEC collected 22 hours after intraperitoneal administration, LPS 100 ng/mL for 3 hours", "procedure": "The test sample AU-1833C was dissolved in DMSO so as to be 50 mg/mL and then diluted five-fold with saline (product name: Otsuka normal saline, manufactured by Otsuka Pharmaceutical Co., Ltd.) to prepare a test sample solution of 10 mg/mL (including 20% DMSO).\nThe animals used were Slc: ddY mice (female, 6-week old) and grouped as follows.\nThe mice purchased at the age of 5 weeks were acclimated for 5 days under a condition of free access to water and feed (regular diet (product name: CE-2, manufactured by CLEA Japan, Inc.)). Body weights of the mice after acclimation at the age of 6 weeks were measured and the mice were grouped based on the measured values so that there was no difference in the body weight among the groups. 200 μL of the test sample solutions or 20% DMSO saline as the non-treated group was respectively administered to the mice by intraperitoneal injection. […] Using a portion of the collected saline and a Turk's solution (product name: Turk's solution, manufactured by Wako Pure Chemical Industries, Ltd.), a concentration of PEC (cells/mL), intraperitoneally exudated nucleated cells such as white blood cells, was measured. The measured PEC concentration was multiplied by the amount of saline intraperitoneally injected (5 mL) to calculate a PEC count per mouse (cells/mouse). […]"}, "[1]": {"system": "peritoneal exudate cell (PEC) count", "experiment": "PEC count in mice after intraperitoneal administration", "format": "in vivo, Slc: ddY mice", "details": "intraperitoneal injection of 200 μL of 10 mg/mL, 22 hours after administration, compared with control non-treated mice (FIG. 4(a))", "procedure": "The test sample AU-1833C was dissolved in DMSO so as to be 50 mg/mL and then diluted five-fold with saline (product name: Otsuka normal saline, manufactured by Otsuka Pharmaceutical Co., Ltd.) to prepare a test sample solution of 10 mg/mL (including 20% DMSO). The animals used were Slc: ddY mice (female, 6-week old) and grouped as follows. The mice purchased at the age of 5 weeks were acclimated for 5 days under a condition of free access to water and feed (regular diet (product name: CE-2, manufactured by CLEA Japan, Inc.)). […] The mice after a lapse of 22 hours from administration were sacrificed under isoflurane anesthesia, 5 mL of saline was intraperitoneally injected, the abdominal area was rubbed about 10 times, and then intraperitoneal cells were collected by collecting the saline from the abdominal cavity. Using a portion of the collected saline and a Turk's solution (product name: Turk's solution, manufactured by Wako Pure Chemical Industries, Ltd.), a concentration of PEC (cells/mL), intraperitoneally exudated nucleated cells such as white blood cells, was measured. The measured PEC concentration was multiplied by the amount of saline intraperitoneally injected (5 mL) to calculate a PEC count per mouse (cells/mouse)."}, "[2]": {"system": "mouse-derived macrophage-like cell line (RAW264)", "experiment": "TNF-α production-inducing activity in cells", "format": "cell-based", "details": "24 hours", "procedure": "A TNF-α production-inducing activity in a mouse-derived macrophage-like cell line (RAW264, provided: RIKEN BioResource Research Center) was investigated. Using, as test samples, AU-1833C (synthesized in Example 1), lentinan (product name: Lentinan, manufactured by FUJIFILM Wako Pure Chemical Corporation) and fucoidan (product name: Fucoidan Fucus vesiculosus-derived, manufactured by Sigma-Aldrich Co. LLC), test sample solutions were prepared so that the final concentrations of the test samples were 50, 100, and 200 μg/mL. First, all test samples were dissolved in dimethylsulfoxide (DMSO) so as to have a 1,000-fold concentration of the final concentration, and then 100-fold dilution was carried out with deionized water thereby to prepare test sample solutions having a 10-fold concentration (including 1% DMSO) of the final concentrations. […] A ratio of a TNF-α concentration in each test sample group relative to a TNF-α concentration in the non-treated group was calculated from the measured TNF-α concentrations and defined as the TNF-α production-inducing activity."}}}
{"smiles": "O=C1OCCCCCCOC(=O)c2ccccc2C(=O)OCCCCCCOC(=O)c2ccccc21", "note": "[AU-1833C, 7,8,9,10,11,12,19,20,21,22,23,24-dodecahydro-dibenzo[1,6,13,18]-tetraoxacyclooctadecine-2,5,14,17-tetrone]", "values": [{"measurement": "TNF-α production amount per cell in PEC", "setting": "TNF-α production of PEC; compared with control non-treated mice (FIG. 4(b))", "result": "significantly higher TNF-α production amount per cell in PEC"}, {"measurement": "PEC-derived TNF-α production amount per mouse", "setting": "TNF-α production of PEC; compared with control non-treated mice (FIG. 4(c))", "result": "significantly higher PEC-derived TNF-α production amount per mouse"}, {"measurement": "PEC counts", "setting": "[1]", "result": "significantly higher PEC counts"}, {"measurement": "TNF-α production-inducing activity (ratio of TNF-α concentration relative to non-treated group)", "setting": "[2]; RAW264 cells, 50, 100 and 200 μg/mL, ELISA, compared with control non-treated group (FIG. 3)", "result": "significantly higher than that of the control non-treated group"}, {"measurement": "TNF-α production-inducing activity compared with lentinan and fucoidan at the same concentration", "setting": "[2]; RAW264 cells, each of 50, 100 and 200 μg/mL, ELISA (FIG. 3)", "result": "significantly higher than those of lentinan and fucoidan at the same concentration"}]}
